Test results published in EPA's ToxRefDB 2.

Legend:
[1] = tested on: rat; settings: Subchronic oral toxicity in rodents, wistar, Feed, dose end: 90 day, group: systemic
[2] = tested on: dog; settings: Subchronic oral toxicity in nonrodent, beagle, Feed, dose end: 90 day, group: systemic, systemic / clinical chemistry / alanine aminotransferase (alt/sgpt) / alanine aminotransferase (alt/sgpt) + systemic / clinical chemistry / …
[3] = tested on: rat; settings: Carcinogenicity, wistar, Oral, Feed, dose end: 104 week, group: systemic
[4] = tested on: rat; settings: Chronic toxicity, wistar, Oral, Feed, dose end: 12 month, group: systemic
[5] = tested on: rabbit; settings: Prenatal developmental toxicity study, himalayan, Oral, Gavage/Intubation, dose end: 19 GD
[6] = tested on: dog; settings: Chronic toxicity, beagle, Oral, Feed, dose end: 52 week, group: systemic
[7] = tested on: dog; settings: Subchronic oral toxicity in nonrodent, beagle, Feed, dose end: 13 week, group: systemic
[8] = tested on: rat; settings: Prenatal developmental toxicity study, fischer, Oral, Gavage/Intubation, dose end: 15 GD
[9] = tested on: rat; settings: Subchronic oral toxicity in rodents, fischer, Feed, dose end: 90 day, group: systemic, systemic / clinical chemistry / thyroxine (t4) / thyroxine (t4), total + systemic / clinical chemistry / triiodothyronine (t3) / …
[10] = tested on: mouse; settings: Combined chronic toxicity/carcinogenicity; b6c3f1; Oral; Feed; dose end: 104 week; group: systemic; systemic / organ weight / kidney / absolute + systemic / organ weight / kidney / relative to body weight + systemic / pathology microscopic…
[11] = tested on: mouse; settings: Subchronic oral toxicity in rodents, b6c3f1, Feed, dose end: 90 day, group: systemic
[12] = tested on: rat; settings: Combined chronic toxicity/carcinogenicity, fischer, Oral, [Not Specified], dose end: 24 month, group: systemic
[13] = tested on: dog; settings: Subchronic oral toxicity in nonrodent, beagle, Capsule, dose end: 13 week, group: systemic, systemic / clinical chemistry / creatinine / creatinine + systemic / clinical chemistry / urea nitrogen / urea nitrogen + systemic / in life…
[14] = systemic / pathology microscopic / kidney / hyaline droplet + systemic / pathology microscopic / kidney / protein + systemic / pathology …
[15] = systemic / pathology microscopic / stomach / hyperkeratosis + systemic / pathology microscopic / liver / hypertrophy + systemic / pathology …
[16] = systemic / pathology gross / lymph node / enlarged
[17] = systemic / pathology microscopic / stomach / edema + systemic / pathology microscopic / stomach / hyperkeratosis + systemic / pathology …
[18] = systemic / pathology gross / liver / foci
[19] = systemic / pathology gross / liver / foci + systemic / pathology gross / stomach / thickened + systemic / pathology microscopic / liver / …
[20] = group: developmental, developmental / developmental malformation / bone / [other] + developmental / developmental malformation / bone / fused + developmental / …
[21] = group: developmental, systemic / in life observation / body weight / fetal weight
[22] = group: maternal, systemic / in life observation / body weight / body weight gain
[23] = systemic / clinical chemistry / alanine aminotransferase (alt/sgpt) / alanine aminotransferase (alt/sgpt) + systemic / clinical chemistry / …
[24] = systemic / in life observation / body weight / body weight gain + systemic / pathology microscopic / kidney / pigmentation
[25] = systemic / in life observation / body weight / body weight + systemic / in life observation / body weight / body weight gain + systemic / in…
[26] = group: developmental, developmental / developmental malformation / bone / full supernumerary + developmental / developmental malformation / bone / incomplete …
[27] = systemic / pathology microscopic / kidney / [other] + systemic / pathology microscopic / liver / nuclear alteration + systemic / pathology …
[28] = systemic / clinical chemistry / thyroxine (t4) / thyroxine (t4), total + systemic / organ weight / thyroid gland / absolute + systemic / …
[29] = systemic / pathology gross / thyroid gland / mass

[Cu+2].[O-]/N=[N+](\[O-])C1CCCCC1.[O-]/N=[N+](\[O-])C1CCCCC1 gave an LOAEL [1, 14] of 140 mg/kg/day, an NOAEL [1, 14] of 35 mg/kg/day and an LEL [1, 15] of 125 mg/kg/day. It also gave an NEL [1, 15] of less than 125 mg/kg/day, an LEL [2] of 69 mg/kg/day and an LOAEL [2] of 69 mg/kg/day. The NEL [2] was 26 mg/kg/day, the NOAEL [2] was 26 mg/kg/day and the LEL [3, 16] was 6 mg/kg/day. For the same compound, the NEL [3, 16] was less than 6 mg/kg/day, the LOAEL [3, 17] was 33 mg/kg/day and the NOAEL [3, 17] was 6 mg/kg/day. It also gave an LEL [4, 18] of 6.1 mg/kg/day, an NEL [4, 18] of less than 6.1 mg/kg/day and an LOAEL [4, 19] of 61 mg/kg/day. It also gave an NOAEL [4, 19] of 18.3 mg/kg/day, an LOAEL [5, 20] of 30 mg/kg/day and an NOAEL [5, 20] of 10 mg/kg/day. It also gave an LEL [5, 21] of 10 mg/kg/day, an NEL [5, 21] of less than 10 mg/kg/day and an LEL [5, 22] of 10 mg/kg/day. The NEL [5, 22] was less than 10 mg/kg/day, the LOAEL ([5]; group: maternal, systemic / in life observation / body weight / body weight gain + systemic / in life observation / food consumption / food consumption) was 30 mg/kg/day and the NOAEL ([5]; group: maternal, systemic / in life observation / body weight / body weight gain + systemic / in life observation / food consumption / food consumption + …) was 10 mg/kg/day.

Work on O=C(O)COc1ccc(Cl)cc1Cl [2,4-Dichlorophenoxyacetic acid] yielded an LOAEL [6, 23] of 5 mg/kg/day, an NOAEL [6, 23] of 1 mg/kg/day and an LEL [6, 24] of 1 mg/kg/day. The NEL [6, 24] was less than 1 mg/kg/day, the LEL [7, 25] was 0.5 mg/kg/day and the NEL [7, 25] was less than 0.5 mg/kg/day. It also gave an NOAEL [7, 25] of 1 mg/kg/day, an LOAEL ([7]; systemic / in life observation / body weight / body weight gain + systemic / clinical chemistry / alanine aminotransferase (alt/sgpt) / …) of 3.75 mg/kg/day and an LEL [8, 26] of 75 mg/kg/day. The LOAEL [8, 26] was 75 mg/kg/day, the NEL [8, 26] was 25 mg/kg/day and the NOAEL [8, 26] was 25 mg/kg/day. The LEL [8, 22] was 75 mg/kg/day, the LOAEL [8, 22] was 75 mg/kg/day and the NEL [8, 22] was 25 mg/kg/day. It also gave an NOAEL [8, 22] of 25 mg/kg/day, an LEL [9] of 100 mg/kg/day and an LOAEL [9] of 100 mg/kg/day. It also gave an NEL [9] of 15 mg/kg/day, an NOAEL [9] of 15 mg/kg/day and an LEL [10] of 62.5 mg/kg/day. For the same compound, the LOAEL [10] was 62.5 mg/kg/day, the NEL [10] was 5 mg/kg/day and the NOAEL [10] was 5 mg/kg/day. It also gave an LEL ([11]; systemic / clinical chemistry / thyroxine (t4) / thyroxine (t4), free + systemic / in life observation / food consumption / food consumption) of 98.2 mg/kg/day, an LOAEL [11, 27] of 293 mg/kg/day and an NEL [11, 27] of 14.7 mg/kg/day. For the same compound, the NOAEL [11, 27] was 98.2 mg/kg/day, the LOAEL [12, 28] was 73.1 mg/kg/day and the NOAEL [12, 28] was 4.89 mg/kg/day. It also gave an LEL [12, 29] of 4.89 mg/kg/day, an NEL [12, 29] of less than 4.89 mg/kg/day and an LEL [13] of 3 mg/kg/day. It also gave an LOAEL [13] of 3 mg/kg/day, an NEL [13] of 1 mg/kg/day and an NOAEL [13] of 1 mg/kg/day.
